# Experimental data reported in patent US7799809B2, “Carboxamide compounds and their use as calpain inhibitors” (Abbott GmbH & Co. KG, priority 2006, dated 2010).
# How the values were obtained:
# Type in all cases: biochemical
# cathepsin B = target: T1, cathepsin B (Homo sapiens, UniProt P07858); assay: Cathepsin B enzyme inhibition in vitro (kinetic fluorescence assay); settings: cathepsin B isolated from human liver vs calpain I
# T1 construct: cathepsin B—isolated from human liver (Calbiochem #219362); purchased Calbiochem 219362; host or cells: human liver (tissue-derived)
# Method in brief: (§1)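 Kinetic fluorescence (ex 390/em 460 nm) at room temperature in 50 mM MES, 2 mM EDTA, 0.05% Brij 35, 2.5 mM L-cysteine, pH 6.0. Cathepsin B (liver, 0.25 nM) with 100 μM Z-Phe-Arg-AMC; cathepsin L (liver, 1 nM) with 2 μM Z-Phe-Arg-AMC; recombinant E. coli cathepsin S (0.5 nM) with 20 μM Z-Val-Val-Arg-AMC. Ki via Cheng-Prusoff.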
# cathepsin K = target: T2, cathepsin K (Homo sapiens, UniProt P43235); assay: Cathepsin K enzyme inhibition in vitro (kinetic fluorescence assay); settings: cathepsin K activated from recombinant human procathepsin K vs calpain I
# T2 construct: purchased Calbiochem 342001; host or cells: E. coli
# T2 sequence (P43235 115-329): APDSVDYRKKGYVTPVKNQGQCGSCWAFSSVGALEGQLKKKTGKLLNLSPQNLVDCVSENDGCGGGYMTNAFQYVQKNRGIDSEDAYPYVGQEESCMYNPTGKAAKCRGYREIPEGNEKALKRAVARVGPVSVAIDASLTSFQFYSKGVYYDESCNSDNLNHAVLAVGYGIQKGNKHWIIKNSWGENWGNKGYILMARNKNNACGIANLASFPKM
# Method: The following solutions and buffers were employed: • HBS (for 40 ml): 800 μl M HEPES; 2.16 ml 100 mM KCl; 4.8 ml 1M NaCl; 3.59 ml 5% glucose; 60 μl μM MgSO4; 400 μl 100 mM Na pyruvate, 28.19 ml water; pH 7.2-7.5. • lysis buffer (for 20 ml): 400 μl M Tris pH 8.2; 2.74 ml 1M NaCl; 520 μl 0.5M EDTA; 2 ml 10% triton X-100; 0.8 ml (=1:25) CompletePlus (1 tablet/2 ml H2O); 200 μl 100 mM Pefabloc; 13.34 ml water, pH 8.2. • TBST (10×) (for 1 l): 100 mM Tris (12.1 g); 1.5M NaCl (87 g); 1% Tween 20 (10 g), adjusted to pH 8. I Enzyme Inhibition In Vitro: • Testing for blockade of the corresponding enzymic activities was carried out by means of kinetic fluorescence assays (excitation 390 nm, emission 460 nm). • Apparent Ki values were calculated from the experimentally determined IC50 values by the Cheng-Prussoff relation assuming a reversible competitive enzyme inhibition. The Km values of the substrates used under the assay conditions indicated above were: 90 μM (Z-Phe-Arg-AMC, cathepsin B), 10 μM (Z-Gly-Pro-Arg-AMC, cathepsin K), 2 μM (Z-Phe-Arg-AMC, cathepsin L), and 30 μM (Z-Val-Val-Arg-AMC, cathepsin S). • The indicated Ki values are averages of the inhibition constants calculated on the basis of 2 to 4 independent dose-effect plots.
# The following assays were used: • 1. Calpain I: • 20 nM calpain-I—isolated from human erythrocytes (Calbiochem #208713), 100 μM Suc-Leu-Tyr-AMC (Bachem #1-1355) as substrate in buffer with 62 mM imidazole, 0.3 mM CaCl2, 0.10% CHAPS, 0.05% BSA, 1 mM DTT at pH 7.3 and room temperature. • 2. Cathepsin B: • 0.25 nM cathepsin B—isolated from human liver (Calbiochem #219362), 100 μM Z-Phe-Arg-AMC (Bachem #I-1160) as substrate 50 mM MES, 2 mM EDTA, 0.05% Brij 35, 2.5 mM L-cysteine, pH 6.0, room temperature. • 3. Cathepsin K: • 3 nM cathepsin K—activated from recombinant human procathepsin K from E. coli (Calbiochem #342001), 10 μM Z-Gly-Pro-Arg-AMC (Biomol #P-142) as substrate in 50 mM MES, 2 mM EDTA, 0.05% Brij 35, 2.5 mM L-cysteine, pH 6.0, room temperature. • 4. Cathepsin L: • 1 nM cathepsin L—isolated from human liver (Calbiochem #219402), 2 μM Z-Phe-Arg-AMC (Bachem #1-1160) as substrate in 50 mM MES, 2 mM EDTA, 0.05% Brij 35, 2.5 mM L-cysteine, pH 6.0, room temperature. • 5. Cathepsin S: • 0.5 nM recombinant human cathepsin S from E. coli (Calbiochem #219343), 20 μM Z-Val-Val-Arg-AMC (Bachem #1-1540) as substrate in 50 mM MES, 2 mM EDTA, 0.05% Brij 35, 2.5 mM L-cysteine, pH 6.0, room temperature. • The results of the in vitro determination are indicated in Table 1. The following abbreviations are used in Table 1: • The “Calpain activity” column, ++ stands for a calpain Ki (Ki(calpain)) of ≦40 nM and + means: 40 nM<Ki(Calpain)≦100 nM. • The “Sel. cat. B” column indicates the Ki(cathepsin B)/Ki(calpain) ratio. In this connection, ++ means a Ki(cathepsin B)/Ki(calpain) ratio of ≧30 and + means 10≦Ki(cathepsin B)/Ki(calpain)<30. • The “Sel. cat. K” column indicates the Ki(cathepsin K)/Ki(calpain) ratio. In this connection, ++ means a Ki(cathepsin K)/Ki(calpain) ratio of ≧30 and + means 10≦Ki(cathepsin K)/Ki(calpain)<30. • The “Sel. cat. L” column indicates the Ki(cathepsin L)/Ki(calpain) ratio. In this connection, ++ means a Ki(cathepsin L)/Ki(calpain) ratio of ≧50 and + means 30≦Ki(cathepsin L)/Ki(calpain)<50. • The “Sel. cat. S” column indicates the Ki(cathepsin S)/Ki(calpain) ratio. In this connection, ++ means a Ki(cathepsin S)/Ki(calpain) ratio of ≧100 and + means 50≦Ki(cathepsin S)/Ki(calpain)<100.
# cathepsin L = target: T3, cathepsin L (Homo sapiens, UniProt P07711); assay: Cathepsin L enzyme inhibition in vitro (kinetic fluorescence assay); settings: cathepsin L isolated from human liver vs calpain I
# T3 construct: cathepsin L—isolated from human liver (Calbiochem #219402); purchased Calbiochem 219402; host or cells: human liver (tissue-derived)
# Method in brief: as §1
# cathepsin S = target: T4, cathepsin S (Homo sapiens, UniProt P25774); assay: Cathepsin S enzyme inhibition in vitro (kinetic fluorescence assay); settings: recombinant human cathepsin S vs calpain I
# T4 construct: purchased Calbiochem 219343; host or cells: E. coli
# Method in brief: as §1
# T4 sequence (P25774 115-331): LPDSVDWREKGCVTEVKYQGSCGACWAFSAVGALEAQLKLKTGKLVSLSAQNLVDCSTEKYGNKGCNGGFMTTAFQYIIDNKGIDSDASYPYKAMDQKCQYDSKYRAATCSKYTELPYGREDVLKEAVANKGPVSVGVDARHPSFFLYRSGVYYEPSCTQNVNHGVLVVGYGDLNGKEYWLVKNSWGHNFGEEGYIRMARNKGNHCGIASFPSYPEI
# T3 sequence (P07711 114-333): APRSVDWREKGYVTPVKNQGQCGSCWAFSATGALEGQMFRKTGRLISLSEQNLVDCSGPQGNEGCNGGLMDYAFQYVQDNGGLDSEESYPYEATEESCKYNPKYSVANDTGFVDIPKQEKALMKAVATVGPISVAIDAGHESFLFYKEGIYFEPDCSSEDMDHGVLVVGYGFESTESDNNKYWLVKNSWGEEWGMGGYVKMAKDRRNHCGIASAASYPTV
SMILES,Sel cat. B: Ki(cathepsin B)/Ki(calpain) ratio (cathepsin B),Sel cat. K: Ki(cathepsin K)/Ki(calpain) ratio (cathepsin K),Sel cat. L: Ki(cathepsin L)/Ki(calpain) ratio (cathepsin L),Sel cat. S: Ki(cathepsin S)/Ki(calpain) ratio (cathepsin S)
"NC(=O)C(=O)C(Cc1ccccc1)NC(=O)c1cccnc1-n1ccc(-c2ccc(C(F)(F)F)cc2)n1 (stereo not drawn) [Example 60, N-(3-Amino-1-benzyl-2,3-dioxopropyl)-2-{3-[4-(trifluoromethyl)phenyl]-1H-pyrazol-1-yl}nicotinamide]",+ (+ means 10≦Ki(cathepsin B)/Ki(calpain)<30),+ (+ means 10≦Ki(cathepsin K)/Ki(calpain)<30),++ (++ means a Ki(cathepsin L)/Ki(calpain) ratio of ≧50),+ (+ means 50≦Ki(cathepsin S)/Ki(calpain)<100)
"NC(=O)C(=O)C(Cc1ccccc1)NC(=O)c1cccnc1-n1cc2c(n1)-c1ccccc1CC2 (stereo not drawn) [Example 63, N-(3-Amino-1-benzyl-2,3-dioxopropyl)-2-(4,5-dihydro-2H-benzo[g]indazol-2-yl)nicotinamide]",+ (+ means 10≦Ki(cathepsin B)/Ki(calpain)<30),+ (+ means 10≦Ki(cathepsin K)/Ki(calpain)<30),++ (++ means a Ki(cathepsin L)/Ki(calpain) ratio of ≧50),++ (++ means a Ki(cathepsin S)/Ki(calpain) ratio of ≧100)
"NC(=O)C(=O)C(Cc1ccc(Cl)cc1)NC(=O)c1cccnc1-n1ccc(-c2ccc(F)cc2)n1 (stereo not drawn) [Example 67, N-[3-Amino-1-(4-chlorobenzyl)-2,3-dioxopropyl]-2-[3-(4-fluorophenyl)-1H-pyrazol-1-yl]nicotinamide]",+ (+ means 10≦Ki(cathepsin B)/Ki(calpain)<30),+ (+ means 10≦Ki(cathepsin K)/Ki(calpain)<30),++ (++ means a Ki(cathepsin L)/Ki(calpain) ratio of ≧50),++ (++ means a Ki(cathepsin S)/Ki(calpain) ratio of ≧100)
"NC(=O)C(=O)C(Cc1ccccc1)NC(=O)c1cccnc1-n1ccc(-c2ccc(N3CCCC3)cc2)n1 (stereo not drawn) [Example 69, N-(3-Amino-1-benzyl-2,3-dioxopropyl)-2-[3-(4-pyrrolidin-1-ylphenyl)-1H-pyrazol-1-yl]nicotinamide]",+ (+ means 10≦Ki(cathepsin B)/Ki(calpain)<30),+ (+ means 10≦Ki(cathepsin K)/Ki(calpain)<30),++ (++ means a Ki(cathepsin L)/Ki(calpain) ratio of ≧50),++ (++ means a Ki(cathepsin S)/Ki(calpain) ratio of ≧100)
"NC(=O)C(=O)C(Cc1ccccc1)NC(=O)c1cccnc1-n1ccc(-c2cccc(Cl)c2)n1 (stereo not drawn) [Example 70, N-(3-Amino-1-benzyl-2,3-dioxopropyl)-2-[3-(3-chlorophenyl)-1H-pyrazol-1-yl]nicotinamide]",+ (+ means 10≦Ki(cathepsin B)/Ki(calpain)<30),+ (+ means 10≦Ki(cathepsin K)/Ki(calpain)<30),++ (++ means a Ki(cathepsin L)/Ki(calpain) ratio of ≧50),++ (++ means a Ki(cathepsin S)/Ki(calpain) ratio of ≧100)
"NC(=O)C(=O)C(Cc1ccccc1)NC(=O)c1cccnc1-n1ccc(-c2ccc(F)cc2Cl)n1 (stereo not drawn) [Example 71, N-(3-Amino-1-benzyl-2,3-dioxopropyl)-2-[3-(2-chloro-4-fluorophenyl)-1H-pyrazol-1-yl]nicotinamide]",++ (++ means a Ki(cathepsin B)/Ki(calpain) ratio of ≧30),++ (++ means a Ki(cathepsin K)/Ki(calpain) ratio of ≧30),++ (++ means a Ki(cathepsin L)/Ki(calpain) ratio of ≧50),++ (++ means a Ki(cathepsin S)/Ki(calpain) ratio of ≧100)
"NC(=O)C(=O)C(Cc1ccccc1)NC(=O)c1cccnc1-n1ccc(-c2ccccc2C(F)(F)F)n1 (stereo not drawn) [Example 72, N-(3-Amino-1-benzyl-2,3-dioxopropyl)-2-{3-[2-(trifluoromethyl)phenyl]-1H-pyrazol-1-yl}nicotinamide]",+ (+ means 10≦Ki(cathepsin B)/Ki(calpain)<30),+ (+ means 10≦Ki(cathepsin K)/Ki(calpain)<30),+ (+ means 30≦Ki(cathepsin L)/Ki(calpain)<50),++ (++ means a Ki(cathepsin S)/Ki(calpain) ratio of ≧100)
"NC(=O)C(=O)C(Cc1ccccc1)NC(=O)c1cccnc1-n1ccc(-c2ccccc2F)n1 (stereo not drawn) [Example 76, N-(3-Amino-1-benzyl-2,3-dioxopropyl)-2-[3-(2-fluorophenyl)-1H-pyrazol-1-yl]nicotinamide]",++ (++ means a Ki(cathepsin B)/Ki(calpain) ratio of ≧30),+ (+ means 10≦Ki(cathepsin K)/Ki(calpain)<30),++ (++ means a Ki(cathepsin L)/Ki(calpain) ratio of ≧50),++ (++ means a Ki(cathepsin S)/Ki(calpain) ratio of ≧100)
"NC(=O)C(=O)C(Cc1ccccc1)NC(=O)c1cccnc1-n1ccc(-c2ccc(Cl)cc2Cl)n1 (stereo not drawn) [Example 79, N-(3-Amino-1-benzyl-2,3-dioxopropyl)-2-[3-(2,4-dichlorophenyl)-1H-pyrazol-1-yl]nicotinamide]",++ (++ means a Ki(cathepsin B)/Ki(calpain) ratio of ≧30),++ (++ means a Ki(cathepsin K)/Ki(calpain) ratio of ≧30),++ (++ means a Ki(cathepsin L)/Ki(calpain) ratio of ≧50),++ (++ means a Ki(cathepsin S)/Ki(calpain) ratio of ≧100)
